These results are taken from patent publication US4782064A, “2-heteroaryl-alkyl-1H-benz[de]-isoquinoline-1,3(2H)-diones” (American Cyanamid Co., priority 1986, dated 1988).

For one test, the target named is T1, thromboxane synthetase (Rattus norvegicus, UniProt P49430).
T1 construct: The platelets were isolated by centrifuging the PRP for 10 minutes; endogenous in cells; host or cells: washed platelets from arterial blood of Okamoto-Aoki spontaneously hypertensive rats (Taconic Farms, Germantown, N.Y.)
T1 sequence (P49430 1-533): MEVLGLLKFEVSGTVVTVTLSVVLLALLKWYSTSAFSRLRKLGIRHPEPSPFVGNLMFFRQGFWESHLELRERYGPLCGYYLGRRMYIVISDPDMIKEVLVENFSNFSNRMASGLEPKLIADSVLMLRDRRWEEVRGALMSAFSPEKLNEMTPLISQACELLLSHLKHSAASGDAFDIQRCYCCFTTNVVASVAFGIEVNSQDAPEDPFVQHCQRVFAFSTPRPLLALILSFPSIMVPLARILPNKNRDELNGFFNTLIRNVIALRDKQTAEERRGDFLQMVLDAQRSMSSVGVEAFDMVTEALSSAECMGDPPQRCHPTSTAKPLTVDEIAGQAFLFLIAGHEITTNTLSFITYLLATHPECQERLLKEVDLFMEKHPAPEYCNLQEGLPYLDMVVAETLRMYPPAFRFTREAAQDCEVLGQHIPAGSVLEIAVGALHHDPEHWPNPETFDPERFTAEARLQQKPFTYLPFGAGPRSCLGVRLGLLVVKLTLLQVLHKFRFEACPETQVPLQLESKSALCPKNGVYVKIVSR
The test can be described thus: inhibition of thromboxane (TX) formation in platelets (TXB2 by radioimmunoassay). It is filed as cell-based, Okamoto-Aoki spontaneously hypertensive rats (SHR). Conditions: drug at 10^-4 M, 10 minutes at 37° C., washed SHR platelets, TXB2 RIA. The protocol: From Okamoto-Aoki spontaneously hypertensive rats (SHR) (Taconic Farms, Germantown, N.Y.) between 19 and 24 weeks in age, under urethan anesthesia, […] of arterial blood was collected in one ml of 3.2% sodium citrate a polystyrene tube. The blood was diluted with 3 ml cold saline and centrifuged at room temperature for 15 minutes at 460×g. The platelet rich plasma (PRP) was separated. The platelets were isolated by centrifuging the PRP for 10 minutes at 1060×g nd were washed in 4 ml cold oxygenated Krebs phosphate buffer, pH 7.4. The chilled platelets recovered from centrifuging at 800×g for 10 minutes were resuspended in oxygenated Krebs phosphate buffer and diluted to contain 4.5-6.0×10^4 platelets/μl. The inhibition of thromboxane (TX) formation was studied by determining the concentration of thromboxane B2 (TXB2), the stable hydrolysis product of TXA2. Assay samples, prepared on ice, contained 200 μl platelet suspension, 50 μl saline, and 50 μl vehicle or drug under study at a concentration of 10^-4 M (with OKY-1581, UK-3724801, 1-benzylimidazole, and/or indometha standards). The samples were incubated for 10 minutes at 37° C. in a metabolic shaker. The reaction was terminated by immersing the tubes in an ice bath and adding 50 μl of 0.5M citric acid. The samples were centrifuged for 10 minutes in a refrigerated centrifuge and the supernatants thus obtained were decanted and stored at -20° C. The TXB2 content for each sample was determined by a direct radioimmunoassay (RIA) utilizing a TXB2 specific RIA kit purchased from New England Nuclear, Boston, Mass. and results expressed as pg TXB2 formed minute^-1 sample^-1, from which the percent inhibition of TXB2 formation was calculated.

Another test concerns ischemic myocardium. Conditions: canines; cited from earlier work.
The subject of test [1] is spontaneously hypertensive rats. Briefly: hypotensive activity in spontaneously hypertensive rats (mean arterial blood pressure). Type of test: in vivo, spontaneously hypertensive rats of the Okamoto strain. The settings on record: by gavage, 100 mg/kg or less, two doses 24 hours apart, measured 28 hours after the initial dose; starting average MABP 160±1.5 mm; number of rats in parentheses. The protocol: The novel compounds of the present invention are also active hypotensive agents and were tested for hypotensive activity by the method of P. S. Chan and D. Poorvin, Clinical and Experimental Hypertension, 1 (6), 817-830 (1979). Male, 16 week old, spontaneously hypertensive rats of the Okamoto strain, from Taconic Farms, Germantown, N.Y. having an average mean arterial blood pressure of 160±1.5 mm of mercury were used in the test. One to 3 rats were used per test compound. The rats were dosed by gavage with a test compound, suspended in 2% pre-boiled starch at a concentration of 50 mg/ml, at a dose of 100 mg/kg of body weight or less, with 0.9% sodium chloride loading at a dose of 25 ml/kg of body weight. A second identical dose of the test compound, without sodium chloride loading was given 24 hours later. At 28 hours after the initial dose, the mean arterial blood pressure (MABP) was measured by the method of Chan and Poorvir vide supra. The procedure was repeated in a second and third rat when necessary as specified in the referenced method.

The test system of test [2] is coronary arteries of guinea pigs and rabbits. The settings on record: cited from earlier work.

Each structure is given as a SMILES string. Where a name gives a salt, the structure may show the parent alone.

In turn, `O=C1c2cccc3cc([N+](=O)[O-])cc(c23)C(=O)N1CCCCCn1ccnc1` [2-[5-(1 --H--imidazol-1-yl)pentyl)-5-nitro-1 --H--benz[de]isoquinoline-1,3(2 --H)--dione] showed an inhibition at 100 µM against thromboxane synthetase of 98%.

Take `O=C1c2cccc3cccc(c23)C(=O)N1CCCCCCCCn1ccnc1` [2-[8-(1H-Imidazol-1-yl)octyl]-1H-benz[de]isoquinoline-1,3(2H)-dione]: the inhibition at 100 µM at thromboxane synthetase is 98%.

The molecule `O=C1c2cccc3cc([N+](=O)[O-])cc(c23)C(=O)N1CCc1cccnc1` [5-Nitro-2-[2-(3-pyridinyl)ethyl]-1 --H--benz[de]isoquinoline-1,3(2 --H)--dione] showed an inhibition at 100 µM against thromboxane synthetase of 94%.

`CCCCC[C@H](O)/C=C/[C@@H]1[C@H]2C/C(=C/CCCC(=O)O)O[C@H]2C[C@H]1O` [PGI2, Prostacyclin]: the “effects on ischemic myocardium” value in the test on ischemic myocardium is “beneficial effects”.

Regarding `Nc1ccc2c3c(cccc13)C(=O)N(CCCCn1ccnc1)C2=O` [6-Amino-2-[4-(1 --H--imidazol-1-yl)butyl]-1 --H--benz[de]isoquinoline-1,3-(2 --H)--dione dihydrochloride], the “MABP/mm Hg (no. of rats)” value in test [1] was 115 mm Hg. Besides, the inhibition at 100 µM on thromboxane synthetase was found to be 96%.

The molecule `CC(CN1C(=O)c2cccc3cc([N+](=O)[O-])cc(c23)C1=O)Cn1ccnc1` (stereo not shown) [2-[3-(1 --H--imidazol-1-yl)-2-methyl-propyl]-5-nitro-1 --H--benz[de]-isoquinoline-1,3(2 --H)--dione] yielded an inhibition at 100 µM at thromboxane synthetase of 100%.

The molecule `O=C1c2cccc3cccc(c23)C(=O)N1C(CCn1ccnc1)c1ccccc1` (stereo not shown) [2-[3-(1 --H--imidazol-1-yl)-1-phenyl-propyl]-1 --H--benz[de]isoquinoline-1,3(2 -- H)--dione] yielded an inhibition at 100 µM against thromboxane synthetase of 97%.

Regarding `O=C1c2cccc3cccc(c23)C(=O)N1CCCn1cncn1` [2-[3-(1 --H--1,2,4-triazol-1-yl)-propyl]-1 --H--benz[de]isoquinoline-1,3(2 --H)--dione], at 100 µM the inhibition on thromboxane synthetase was 96%.

`CCCCC[C@H](O)/C=C/[C@H]1O[C@H]2C[C@H](O2)[C@@H]1C/C=C\CCCC(=O)O` [TXA2, thromboxane A2]: the “effect of injection into coronary arteries” value in test [2] is “causes myocardial ischemia and subendocardial necrosis”.

As to `O=C1c2cccc3cc([N+](=O)[O-])cc(c23)C(=O)N1CCCn1ccnc1-c1ccccc1` [5-Nitro-2-[3-(2-phenyl-1 --H--imidazol-1-yl)propyl]-1 --H-- benz[de]-isoquinoline-1,3(2 --H)--dione], the inhibition at 100 µM at thromboxane synthetase turned out to be 89%.

Regarding `O=C1c2cccc3cc([N+](=O)[O-])cc(c23)C(=O)N1CCCn1ccnc1` [2-[3-(1 --H--imidazol-1-yl)propyl]-5-nitro-1 --H--benz[de]isoquinoline-1,3(2 --H)--dione], the “MABP/mm Hg (no. of rats)” value in test [1] was found to be 97 mm Hg. At thromboxane synthetase, this molecule gave an inhibition at 100 µM of 100%.

Molecule `O=C1c2cccc3cc([N+](=O)[O-])cc(c23)C(=O)N1CCCCc1cccnc1` [5-nitro-2-[4-(3-pyridinyl)butyl]-1 --H--benz[de]isoquinoline-1,3(2 --H)--dione] showed an inhibition at 100 µM on thromboxane synthetase of 94%.

Regarding `CC(CCN1C(=O)c2cccc3cc([N+](=O)[O-])cc(c23)C1=O)n1ccnc1` (stereo not shown) [2-[3-(1 --H--imidazol-1-yl)butyl]-5-nitro-1 --H--benz[de]isoquinoline-1,3(2 --H)--dione], the inhibition at 100 µM at thromboxane synthetase was determined as 100%.

`O=C1c2cccc3cccc(c23)C(=O)N1CCCn1ccnc1` [2-[3(1 --H--imidazol-1-yl)propyl]-1 --H--benz[de]isoquinoline-1,3(2 --H)--dione]: the “MABP/mm Hg (no. of rats)” value in test [1] is recorded as 103 mm Hg. The molecule further had an inhibition at 100 µM against thromboxane synthetase of 89%.

As for `O=C1c2cccc3cccc(c23)C(=O)N1CCCCn1ccnc1` [2-[4-(1H-Imidazol-1-yl)butyl]-1H-benz-[de]isoquinoline-1,3(2H)-dione], the “MABP/mm Hg (no. of rats)” value in test [1] was found to be 106 mm Hg. The molecule also gave an inhibition at 100 µM against thromboxane synthetase of 96%.

On to `O=C1c2cccc3c(Cl)ccc(c23)C(=O)N1CCCCn1ccnc1` [6-Chloro-2-[4-(1H-imidazol-1-yl)butyl]-1H-benz[de]isoquinoline-1,3(2H)-dione monohydrochloride], for which 100 µM produced 96% inhibition against thromboxane synthetase.

For the molecule `O=C1c2cccc3cc([N+](=O)[O-])cc(c23)C(=O)N1CCCCn1ccnc1` [2-[4-(1H-Imidazol-1-yl)butyl]-5-nitro-1H-benz[de]isoquinoline-1,3(2H)-dione], the “MABP/mm Hg (no. of rats)” value in test [1] was found to be 123 mm Hg. Further, on thromboxane synthetase, the inhibition at 100 µM is 97%.

The molecule `O=C1c2cccc3c(Cl)ccc(c23)C(=O)N1CCCCCn1ccnc1` [6-Chloro-2-[5-(1 --H--imidazol-1-yl)pentyl]-1 --H--benz[de]isoquinoline-1,3-(2 --H)--dione] registered an inhibition at 100 µM against thromboxane synthetase of 94%.

With `CC(CCN1C(=O)c2cccc3cccc(c23)C1=O)n1ccnc1` (stereo not shown) [2-[3-(1 --H--imidazol-1-yl)butyl]-1 --H--benz[de]isoquinoline-1,3(2 --H)--dione], in test [1], the “MABP/mm Hg (no. of rats)” value is given as 120 mm Hg. The molecule further yielded an inhibition at 100 µM against thromboxane synthetase of 97%.

For the molecule `O=C1c2cccc3cccc(c23)C(=O)N1CCCCCn1ccnc1` [2-[5-(1 --H--imidazol-1-yl)pentyl)-1 --H--benz[de]isoquinoline-1,3(2 --H)--dione], 100 µM produced 100% inhibition against thromboxane synthetase.

As for `CC(CN1C(=O)c2cccc3cccc(c23)C1=O)Cn1ccnc1` (stereo not shown) [2-[3-(1 --H--imidazol-1-yl)-2-methyl-propyl]-1 --H--benz[de]isoquinoline-1,3(2 --H)--dione], the “MABP/mm Hg (no. of rats)” value in test [1] is on record as 134 mm Hg. Further, the inhibition at 100 µM against thromboxane synthetase came to 99%.

As to `Cc1cn(CCCN2C(=O)c3cccc4cccc(c34)C2=O)cn1` [2-[3-(4-methyl-1 --H--imidazol-1-yl)-propyl]-1 --H--benz[de]isoquinoline-1,3(2 --H)--dione], the inhibition at 100 µM at thromboxane synthetase worked out at 98%.

`O=C1c2cccc3cc([N+](=O)[O-])cc(c23)C(=O)N1CCCn1cncn1` [5-Nitro-2-[3-(1 --H--1,2,4-triazol-1-yl)propyl]-1 --H--benz[de]isoquinoline-1,3(2 --H)--dione]: in test [1], the “MABP/mm Hg (no. of rats)” value worked out at 127 mm Hg. On thromboxane synthetase, the inhibition at 100 µM is 94%.

For `O=C1c2cccc3c(Cl)ccc(c23)C(=O)N1CCCn1ccnc1` [6-Chloro-2-[3(1 --H--imidazol-1-yl)-propyl]-1 --H--benz[de]isoquinoline-1,3(2 --H)--dione monohydrochloride], the inhibition at 100 µM on thromboxane synthetase stood at 95%.

Take `O=C1c2cccc3cccc(c23)C(=O)N1CCCCc1cccnc1` [2-[4-(3-pyridinyl)butyl]-1 --H--benz[de]isoquinoline-1,3(2 --H)--dione]: the “MABP/mm Hg (no. of rats)” value in test [1] was 137 mm Hg. At thromboxane synthetase, this molecule returned an inhibition at 100 µM of 98%.

What is called inhibition is the drop in the measured response relative to a control, in per cent.
